What was measured:
[1] = Aerosol performance by Next Generation Impactor (NGI); type: physicochemical
Source text: After aerosolization of 3 doses from the inhaler device, the NGI apparatus was disassembled and the amounts of drug deposited in the stages were recovered by washing with a solvent mixture and then quantified by High-Performance Liquid Chromatography (HPLC).

[2] = Uniformity of distribution of the active ingredients in the blend (10 samples, HPLC); type: physicochemical; conditions: dry powder formulation of Example 2; mean value ± RSD
Protocol: The uniformity of distribution of the active ingredients was evaluated by withdrawing 10 samples from different parts of the blend and evaluated by HPLC

[3] = Batch CY (Cyclomix), reference powder formulation of WO 2015/004243
[4] = Batch MF (mechano-fusion), reference powder formulation of WO 2015/004243
[5] = dry powder formulation of Example 2, DPI of WO 2004/012801
[6] = dry powder formulation of Example 2, DPI of WO 2004/012801, 2.0-5.0 micron
[7] = dry powder formulation of Example 2, DPI of WO 2004/012801, particle size <= 5.0 micron
[8] = dry powder formulation of Example 2, multidose DPI of WO 2004/012801
[9] = pMDI HFA solution formulation of WO 2011/076843 (reference Example 4)

Row | SMILES | Delivered Dose [1, 3] [µg] | Extrafine Particle Fraction < 2 μm [1, 3] [%] | Extrafine Particle Mass < 2 μm [1, 3] [µg] | Fine Particle Fraction [1, 3] [%] | Fine Particle Mass [1, 3] [µg] | MMAD [1, 3] [μm] | Mid Fine Particle Fraction [1, 3] [%] | Mid Fine Particle Mass [1, 3] [µg] | Delivered Dose [1, 4] [µg] | Extrafine Particle Fraction < 2 μm [1, 4] [%] | Extrafine Particle Mass < 2 μm [1, 4] [µg] | Fine Particle Fraction [1, 4] [%] | Fine Particle Mass [1, 4] [µg] | MMAD [1, 4] [μm] | Mid Fine Particle Fraction [1, 4] [%] | Mid Fine Particle Mass [1, 4] [µg] | Extrafine Particle Fraction < 1 μm [1, 5] [%] | Extrafine Particle Fraction < 2 μm [1, 5] [%] | Extrafine Particle Mass < 1 μm [1, 5] [µg] | Extrafine Particle Mass < 2 μm [1, 5] [µg] | further results
1 | C[N+]1(C)CCC(OC(=O)C(O)(c2ccccc2)C2CCCC2)C1 (stereo not drawn) [GB, Glycopyrronium bromide] | 11.6 | 34.9 | 4.0 | 57.2 | 6.6 | 1.8 | 22.3 | 2.6 | 11.9 | 33.2 | 4.0 | 53.8 | 6.4 | 1.4 | 20.6 | 2.5 | 9.8 | 26.4 | 1.1 | 2.9 | Fine Particle Fraction [1, 5]: 48.1%; MMAD [1, 5]: 1.9 μm; Mid Fine Particle Fraction [1, 6]: 21.6%; Mid Fine Particle Mass [1, 6]: 2.4 µg; Fine Particle Mass [1, 7]: 5.4 µg; Delivered Dose [1, 8]: 11.1 µg; Delivered Dose [1, 9]: 10.6 µg; Extrafine Particle Fraction < 2 μm [1, 9]: 40.2%; Extrafine Particle Mass < 2 μm [1, 9]: 4.2 µg; Fine Particle Fraction [1, 9]: 45.1%; Fine Particle Mass [1, 9]: 4.8 µg; MMAD [1, 9]: 1.0 μm; Mid Fine Particle Fraction [1, 9]: 5.0%; Mid Fine Particle Mass [1, 9]: 0.5 µg
2 | CCC(=O)OCC(=O)[C@@]1(OC(=O)CC)[C@@H](C)C[C@H]2[C@@H]3CCC4=CC(=O)C=C[C@]4(C)[C@@]3(Cl)[C@@H](O)C[C@@]21C [BDP, Beclometasone dipropionate] | 90.6 | 53.9 | 48.8 | 71.2 | 64.5 | 1.1 | 17.3 | 15.7 | 95.7 | 52.3 | 50.0 | 69.9 | 66.9 | 1.1 | 17.6 | 16.9 | 13.9 | 32.1 | 12.4 | 28.5 | Uniformity of distribution [2]: 100.5 (±1.8); Fine Particle Fraction [1, 5]: 49.3%; MMAD [1, 5]: 1.6 μm; Mid Fine Particle Fraction [1, 6]: 17.1%; Mid Fine Particle Mass [1, 6]: 15.2 µg; Fine Particle Mass [1, 7]: 43.6 µg; Delivered Dose [1, 8]: 88.5 µg; Delivered Dose [1, 9]: 87.8 µg; Extrafine Particle Fraction < 2 μm [1, 9]: 40.9%; Extrafine Particle Mass < 2 μm [1, 9]: 35.9 µg; Fine Particle Fraction [1, 9]: 46.0%; Fine Particle Mass [1, 9]: 40.4 µg; MMAD [1, 9]: 1.0 μm; Mid Fine Particle Fraction [1, 9]: 5.2%; Mid Fine Particle Mass [1, 9]: 4.5 µg
